Results published in patent US7803930B2, “Antisense modulation of apolipoprotein B-expression” (Isis Pharmaceuticals, Inc., priority 2002, dated 2010).
In the oligonucleotide strings, read from the 5' end, every base follows the letter of its sugar. An asterisk marks phosphorothioate; unmarked linkages are phosphodiester. Other units and linkages are bracketed, terminal groups are in braces. A string of capitals states the bases alone. e = 2'-O-(2-methoxyethyl) (MOE); [5mC] = 5-methylcytosine; d = 2'-deoxy (DNA)

Assays:
[1] = system: Cynomolgous monkey apolipoprotein B mRNA; test: Apolipoprotein B mRNA in primary Cynomolgous monkey hepatocytes, real-time PCR; format: cell-based; conditions: for % Inhibition of apolipoprotein B mRNA: primary Cynomolgous monkey hepatocytes
Method in brief: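 Primary cynomolgus hepatocytes treated with antisense oligonucleotides at 10, 50, 150 or 300 nM (some sets 10–150 nM) for 24 or 48 h, depending on the set. mRNA quantified by real-time PCR using human apoB and GAPDH primers/probes. Values are percent inhibition normalized to untreated cells, averaged over 2–6 experiments.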

[2] = system: human apolipoprotein(a) mRNA; test: Apolipoprotein(a) mRNA expression in primary human hepatocytes, real-time PCR; format: cell-based; conditions: 24 hours; for % Change in apolipoprotein(a) mRNA expression following antisense inhibition of apolipoprotein B: primary human hepatocytes; for expression of apolipoprotein(a) mRNA: human primary hepatocytes, 5, 10, 50 or 150 nM
Experimental: Primary human hepatocytes (InVitro Technologies, Baltimore, Md.), cultured and transfected as described herein, were treated with 5, 10, 50 or 150 nM of ISIS 271009 (SEQ ID NO: 319), 281625 (SEQ ID NO: 224), 301012 (SEQ ID NO: 247) or 301027 (SEQ ID NO: 262). Cells were also treated with 50 or 150 nM of the control oligonucleotides ISIS 113529 (SEQ ID NO: 859) or ISIS 13650 (SEQ ID NO: 806). Untreated cells served as a control. Following 24 hours of oligonucleotide treatment, apolipoprotein(a) mRNA expression was measured by quantitative real-time PCR as described in other examples herein.
Probes and primers to human apolipoprotein(a) were designed to hybridize to a human apolipoprotein(a) sequence, using published sequence information (GenBank accession number NM_005577.1, incorporated herein as SEQ ID NO: 860). For human apolipoprotein(a) the PCR primers were: […]
forward primer: […] (SEQ ID NO: 861)
reverse primer: TGCGTCTGAGCATTGCGT (SEQ ID NO: 862) and the PCR probe was: FAM-[…]-TAMRA (SEQ ID NO: 863) where FAM is the fluorescent dye and TAMRA is the quencher dye.
Data are the average of three experiments and are expressed as percent inhibition relative to untreated controls.

[3] = Time course at two doses in female C57BL/6 mice (Example 49): AST and ALT levels; format: in vivo, mouse
Experimental: Female C57BL/6 mice were divided into two groups—one group receiving oligonucleotide treatment and control animals receiving saline treatment. After overnight fasting, mice were dosed intraperitoneally twice a week with saline or 25 mg/kg or 50 mg/kg of ISIS 281625 (SEQ ID NO: 224), ISIS 301012 (SEQ ID NO: 247), or ISIS 301027 (SEQ ID NO: 262). After 2 weeks, a blood sample was taken from the tail of the mice and evaluated for liver enzyme. After 4 weeks, and study termination, animals were sacrificed and evaluated for liver enzyme levels.

apolipoprotein B protein = test: Apolipoprotein B protein secreted from primary Cynomolgous monkey hepatocytes, ELISA; format: cell-based; conditions: for % Reduction of monkey apolipoprotein B protein secretion / secretion of apolipoprotein B protein (ELISA): primary Cynomolgous hepatocytes; for % Reduction in secreted apolipoprotein B protein: primary Cynomolgous monkey hepatocytes;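 for % Reduction in secreted apolipoprotein B protein: normalized to untreated control cells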
Method in brief: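 Primary cynomolgus hepatocytes treated with oligonucleotide at 150 and 300 nM, or 50 and 150 nM for some compounds; secreted apoB protein quantified by apoB-specific ELISA. Values are means of 3 experiments.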

[4] = 25 mg/kg i.p. twice a week, 2 weeks
[5] = 25 mg/kg i.p. twice a week, 4 weeks
[6] = 50 mg/kg i.p. twice a week, 2 weeks
[7] = 50 mg/kg i.p. twice a week, 4 weeks
[8] = 50 nM (Table 49), "+" = secretion increased
[9] = 150 nM (Table 49), "+" = secretion increased
[10] = 25 or 50 mg/kg (either dose) i.p. twice a week, after 2 weeks
[11] = higher dose (50 mg/kg), after 4 weeks
[12] = lower dose (25 mg/kg), after 4 weeks

Substance	% Change in apolipoprotein(a) mRNA expression following antisense inhibition of apolipoprotein B ([2]; 5 nM)	% Change in apolipoprotein(a) mRNA expression following antisense inhibition of apolipoprotein B ([2]; 10 nM)	% Change in apolipoprotein(a) mRNA expression following antisense inhibition of apolipoprotein B ([2]; 50 nM)	% Change in apolipoprotein(a) mRNA expression following antisense inhibition of apolipoprotein B ([2]; 150 nM)	ALT [3, 4]	AST [3, 4]	ALT [3, 5]	AST [3, 5]	ALT [3, 6]	AST [3, 6]	ALT [3, 7]	AST [3, 7]	% Inhibition of apolipoprotein B mRNA ([1]; 150 nM, 24 hours (Table 48))	% Reduction of monkey apolipoprotein B protein secretion (apolipoprotein B protein; [9])	expression of apolipoprotein(a) mRNA [2]	AST and ALT levels [3, 10]	also measured
281625 (antisense eA*eG*eG*eT*eT*dA*d[5mC]*d[5mC]*dA*dG*d[5mC]*d[5mC]*dA*d[5mC]*dA*eT*eG*e[5mC]*eA*eG) [compound 281625]	−9%	−23%	−34%	+32%	21.2 IU/L	40.8 IU/L	31.8 IU/L	75 IU/L	30.8 IU/L	44.4 IU/L	210.4 IU/L	152.4 IU/L					% Inhibition of apolipoprotein B mRNA ([1]; 10 nM, 24 hours (Table 46), "+" = expression increased): +5%; % Inhibition of apolipoprotein B mRNA ([1]; 50 nM, 24 hours (Table 46)): 41%; % Inhibition of apolipoprotein B mRNA ([1]; 150 nM, 24 hours (Table 46), "+" = expression increased): 35%; % Inhibition of apolipoprotein B mRNA ([1]; 300 nM, 24 hours (Table 46)): 69%; % Reduction of monkey apolipoprotein B protein secretion (apolipoprotein B protein; 50 nM (Table 47)): 6%; % Reduction of monkey apolipoprotein B protein secretion (apolipoprotein B protein; 150 nM (Table 47)): 13%
301027 (eG*e[5mC]*eT*e[5mC]*eA*d[5mC]*dT*dG*dT*dA*dT*dG*dG*dT*dT*eT*eT*eA*eT*e[5mC]; antisense) [compound 301027]	−16%	−45%	−39%	−43%	27.2 IU/L	55.4 IU/L	311.2 IU/L	537.6 IU/L	34.8 IU/L	64 IU/L	1194 IU/L	1884 IU/L	67%	31%			% Inhibition of apolipoprotein B mRNA ([1]; 10 nM, 24 hours (Table 48)): 40%; % Inhibition of apolipoprotein B mRNA ([1]; 50 nM, 24 hours (Table 48)): 54%; % Reduction of monkey apolipoprotein B protein secretion (apolipoprotein B protein; [8]): 25%
271009 (antisense eG*e[5mC]*e[5mC]*eT*e[5mC]*dA*dG*dT*d[5mC]*dT*dG*d[5mC]*dT*dT*d[5mC]*eG*e[5mC]*eG*e[5mC]*e[5mC]) [compound 271009]	+70%	+31%	+25%	−47%									69%	26%			% Inhibition of apolipoprotein B mRNA ([1]; 10 nM, 24 hours (Table 48)): 42%; % Inhibition of apolipoprotein B mRNA ([1]; 50 nM, 24 hours (Table 48)): 66%; % Reduction of monkey apolipoprotein B protein secretion (apolipoprotein B protein; [8]): +30%
ISIS 301027: SEQ ID NO: 262, 2′-MOE gapmer targeted to human apolipoprotein B (antisense eG*e[5mC]*eT*e[5mC]*eA*d[5mC]*dT*dG*dT*dA*dT*dG*dG*dT*dT*eT*eT*eA*eT*e[5mC])															decreased	small increase	inhibition of apolipoprotein B mRNA expression ([1]; Cynomolgous monkey primary hepatocytes, 10, 50 and 150 nM, 24 hours): in a dose-dependent manner; AST and ALT levels ([3]; either dose, after 4 weeks): huge increase
ISIS 281625: SEQ ID NO: 224, 2′-MOE gapmer targeted to human apolipoprotein B (antisense eA*eG*eG*eT*eT*dA*d[5mC]*d[5mC]*dA*dG*d[5mC]*d[5mC]*dA*d[5mC]*dA*eT*eG*e[5mC]*eA*eG)															decreased	remained close to those of saline	inhibition of apolipoprotein B mRNA expression ([1]; Cynomolgous monkey primary hepatocytes, 10, 50, 150 or 300 nM, 24 hours): in a dose-dependent manner; AST and ALT levels over saline treated animals [3, 11]: large increase; AST and ALT levels over saline treated animals [3, 12]: moderate increase; secretion of apolipoprotein B protein (ELISA) (apolipoprotein B protein; 50 and 150 nM (statement after Table 49)): decrease
113529 (antisense e[5mC]*eT*e[5mC]*eT*eT*dA*d[5mC]*dT*dG*dT*dG*d[5mC]*dT*dG*dT*eG*eG*eA*e[5mC]*eA) [compound 113529]			+14%	−9%									11%	15%			% Inhibition of apolipoprotein B mRNA ([1]; 150 nM, 24 hours): 5%; % Inhibition of apolipoprotein B mRNA ([1]; 150 nM, 48 hours): 42%; % Inhibition of apolipoprotein B mRNA ([1]; 300 nM, 24 hours): 19%; % Inhibition of apolipoprotein B mRNA ([1]; 300 nM, 24 hours (Table 46)): 28%; % Inhibition of apolipoprotein B mRNA ([1]; 300 nM, 48 hours): 13%; % Reduction of monkey apolipoprotein B protein secretion (apolipoprotein B protein; 150 nM (Table 47)): 12%; % Reduction in secreted apolipoprotein B protein (apolipoprotein B protein; 150 nM, 24 hours): 11%; % Reduction in secreted apolipoprotein B protein (apolipoprotein B protein; 150 nM, 48 hours): 18%; % Reduction in secreted apolipoprotein B protein (apolipoprotein B protein; 300 nM, 24 hours): 12%; % Reduction in secreted apolipoprotein B protein (apolipoprotein B protein; 300 nM, 48 hours): 8%
ISIS 301012: SEQ ID NO: 247, antisense oligonucleotide targeted to human apolipoprotein B (antisense GCCTCAGTCTGCTTCGCACC; chemistry not given here)															did not inhibit	remained close to those of saline	inhibition of apolipoprotein B mRNA expression ([1]; cynomolgous monkey primary hepatocytes, 10, 50, 150 or 300 nM): in a dose- and time-dependent manner; AST and ALT levels over saline treated animals [3, 11]: large increase; AST and ALT levels over saline treated animals [3, 12]: moderate increase; secretion of apolipoprotein B protein (ELISA) (apolipoprotein B protein; 150 and 300 nM): decrease
301012 (eG*e[5mC]*e[5mC]*eT*e[5mC]*dA*dG*dT*d[5mC]*dT*dG*d[5mC]*dT*dT*d[5mC]*eG*e[5mC]*eA*e[5mC]*e[5mC]) [compound 301012]	+34%	+86%	+30%	+38%	22.4 IU/L	37.2 IU/L	24.8 IU/L	89.8 IU/L	23.2 IU/L	38.4 IU/L	29.2 IU/L	107.4 IU/L					% Inhibition of apolipoprotein B mRNA ([1]; 10 nM, 24 hours): 24%; % Inhibition of apolipoprotein B mRNA ([1]; 10 nM, 48 hours): 76%; % Inhibition of apolipoprotein B mRNA ([1]; 50 nM, 24 hours): 60%; % Inhibition of apolipoprotein B mRNA ([1]; 50 nM, 48 hours): 77%; % Inhibition of apolipoprotein B mRNA ([1]; 150 nM, 24 hours): 56%; % Inhibition of apolipoprotein B mRNA ([1]; 150 nM, 48 hours): 88%; % Inhibition of apolipoprotein B mRNA ([1]; 300 nM, 24 hours): 61%; % Inhibition of apolipoprotein B mRNA ([1]; 300 nM, 48 hours): 86%; % Reduction in secreted apolipoprotein B protein (apolipoprotein B protein; 150 nM, 24 hours): 31%; % Reduction in secreted apolipoprotein B protein (apolipoprotein B protein; 150 nM, 48 hours): 25%; % Reduction in secreted apolipoprotein B protein (apolipoprotein B protein; 300 nM, 24 hours): 10%; % Reduction in secreted apolipoprotein B protein (apolipoprotein B protein; 300 nM, 48 hours): 17%
